# Measurements taken from paper PMC6086891, “Adenosine Kinase couples sensing of cellular potassium depletion to purine metabolism” (Scientific Reports, 2018).
# Key:
# Type in all cases: binding
# [1] = biological target: T1, Adenosine Kinase (mADK) (Mus musculus, UniProt P55264); assay: X-ray crystal structure, […] Å binary complex (also the […] Å ternary complex 5KB5); kinetics show competitive inhibition against ATP; set-up: gene Adk; Δ19mADK, Leu20 – Phe360 (binary complex); full-length mADK (ternary complex)
# Target sequence in this assay (P55264 20-360): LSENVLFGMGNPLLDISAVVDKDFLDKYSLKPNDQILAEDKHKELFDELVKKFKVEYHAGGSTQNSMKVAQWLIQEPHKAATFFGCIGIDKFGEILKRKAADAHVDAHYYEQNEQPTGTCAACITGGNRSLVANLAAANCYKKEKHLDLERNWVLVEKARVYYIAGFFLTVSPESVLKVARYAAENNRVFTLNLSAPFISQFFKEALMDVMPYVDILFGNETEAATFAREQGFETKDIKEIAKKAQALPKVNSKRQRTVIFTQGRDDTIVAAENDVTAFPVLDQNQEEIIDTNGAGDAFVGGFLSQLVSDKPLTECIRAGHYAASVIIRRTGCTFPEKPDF
# [2] = biological target: T1, Adenosine Kinase (mADK); assay: X-ray crystal structure, […] Å ternary complex mADK:ADO:ADP; set-up: gene Adk; full-length mADK (Met1 to His362); model residues 20 to 360
# Target sequence in this assay (P55264 whole entry, the tested form may be a part): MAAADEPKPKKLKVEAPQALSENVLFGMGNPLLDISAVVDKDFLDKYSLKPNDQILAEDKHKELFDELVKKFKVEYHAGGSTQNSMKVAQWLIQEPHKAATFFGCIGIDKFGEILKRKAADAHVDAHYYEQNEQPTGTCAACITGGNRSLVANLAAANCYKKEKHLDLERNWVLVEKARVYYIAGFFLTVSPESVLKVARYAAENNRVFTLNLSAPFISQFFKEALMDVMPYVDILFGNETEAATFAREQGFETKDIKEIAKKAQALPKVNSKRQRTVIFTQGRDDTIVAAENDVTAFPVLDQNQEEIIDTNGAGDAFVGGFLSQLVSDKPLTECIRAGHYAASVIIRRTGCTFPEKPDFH
# [3] = biological target: T2, Adenosine Kinase (mADK) (Mus musculus, UniProt P55264, D310P); assay: 2D […]-1H HSQC titration and 1D 1H STD NMR (weaker than wild type)
# T2 construct: gene Adk
# [4] = biological target: T1, Adenosine Kinase (mADK); assay: 2D […]-1H HSQC titration and 1D 1H STD NMR; set-up: gene Adk
# Target sequence in this assay (P55264 whole entry, the tested form may be a part): as above
# T2 sequence (P55264 whole entry D310P): as the sequence (P55264 whole entry, the tested form may be a part) above, with D310P counted along it
smiles,measurement,setting,value
"Nc1ncnc2c1ncn2[C@@H]1O[C@H](CO)[C@@H](O)[C@H]1O [ADO, adenosine]","X-ray crystal structure, 1.2 Å binary complex (also the 1.8 Å ternary complex 5K)",[1],"In the mADK:ADO complex, electronic density for ADO was identified in the BS1 site"
"Nc1ncnc2c1ncn2[C@@H]1O[C@H](COP(=O)(O)OP(=O)(O)O)[C@@H](O)[C@H]1O [ADP, adenosine-5′-diphosphate]","X-ray crystal structure, 1.8 Å ternary complex mADK:ADO:ADP",[2],"In this complex, ADP occupies BS1."
"Nc1ncnc2c1ncn2[C@@H]1O[C@H](CO[P@](=O)(O)O[P@](=O)(O)O[P@@](=O)(O)S)[C@@H](O)[C@H]1O [ATPγS, adenosine triphosphate-gamma-S]",2D 15N-1H HSQC titration and 1D 1H STD NMR (weaker than wild type),[3],1D ^1H STD NMR indicate that the D310P mutant has an unfavorable interaction with ATPγS relative to the wild-type mADK
same,2D 15N-1H HSQC titration and 1D 1H STD NMR,[4],"ATPγS caused significant chemical shift changes in the wild-type mADK, especially in the residues around the BS1 site"
